Assay results: US9821000B2, “Compounds, compositions and corresponding uses for preventing and/or treating of dyslipidemia” (CENTRE NATIONAL DE LA RECHERCHE SCIENTIFIQUE (CNRS), priority 2013, dated 2017)
Entries after “also recorded” stand apart in the source; their conditions may differ.

Assays:
[1] = test system: BRIN-BD11 pancreatic β-cells; experiment: Cell viability test (propidium iodide, flow cytometry) of pancreatic β-cells lipo-intoxicated by palmitic acid; type: cell-based, rat; details: BRIN-BD11, palmitic acid 200 μM, growing concentrations of compound
Procedure: The BRIN-BD11 pancreatic β-cells were cultivated in controlled conditions or in the presence of an exogenous source of saturated fatty acids (palmitic acid 200 μM), as described by Dhayal& Morgan (2011) in order to generate conditions of lipotoxicity with or without addition of OAG or LPA.
FIG. 7A—The proportion of dead cells was estimated in the absence (Ctrl) or in the presence of palmitic acid (Palm), for growing concentrations of OAG and LPA.
The lipidic species are prepared in ethanol and then complexed with bovine serum albumen (BSA initially devoid of fatty acids) by incubation for one hour at 37° C. […]
The pancreatic β-cell cell line (BRIN-BD11) of rats is cultivated in an RPMI-1640 complete medium containing glucose at 11 mM and supplemented with 10% (v/v) of fetal calf serum (FCS), 2 mM of L-glutamine, 100 U/mL of penicillin and 100 μg/mL of streptomycin. […] In the case of the controlled conditions, identical quantities of BSA and ethanol were then used. […] After incubation at 10 minutes on ice, the samples thus obtained are analyzed by cytometry in flux. A Beckman Coulter EPICS XL MCL is used for quantification, an FL3 channel serves to detect emissions from PI interposed in the DNA and the analysis is done by means of the software EXPO32 ADC (Applied Cytometry Systems, V 1.1 build 207).

hem1Δ yeasts = experiment: Phospholipid fatty acid content by mass spectrometry in lipo-intoxicated hem1Δ yeasts; type: cell-based, Saccharomyces cerevisiae; details: hem1Δ, SFA accumulation, 100 μM compound; for production of di-unsaturated phospholipids (level of PC species 36:2): 7 h
Procedure: The hem1Δ yeasts were cultivated in standard conditions (control) or in conditions of SFA accumulation without (Ø) or with the addition of 100 μM of oleic acid, LPA or OAG as indicated.
FIG. 6A—After 7 h of incubation, the phospholipids (PL) were extracted and the different species of phosphatidylcholine (PC), which constitute the predominantly present PL were analyzed by mass spectrometry in positive mode, according to Pineau et al. (2008).
FIG. 6B—All the species of PL detectable in these conditions of mass spectrometry were analyzed to globally quantify the content in SFA forms.
The hem1Δ strain is cultivated in a YPG^A, YPG^+ or YPG^+ liquid medium+200 μM of compound to be tested in aerobic conditions, under stirring and at 28° C. for 7 h, starting from an initial cell concentration of 2·10^6 cells/mL. At the end of the culture, 10^8 cells are collected in order to carry out the extraction of the total lipids. After the cells have been put in suspension in 1 mL of distilled water at 4° C., 500 μL of glass beads (Ø 0.6 mm) are added and the whole mixture then undergoes three sequences of 20 seconds at 5000 rpm in a stirrer (the tubes are kept on ice between each of the three sequences). The cellular lysate then obtained, complemented with water for rinsing the beads (1 mL), is then transferred into a 40 mL glass tube (Corex™) and then the lipids are extracted by using a methanol:chloroform ratio of 2:1 (v/v). Initially, 6 mL of methanol are added and the entire mixture is vortexed for 30 seconds and then incubated for 15 minutes at 65° C. Once the mixture has been cooled to ambient temperature, […] of chloroform is added and then the entire mixture is again vortexed for 30 seconds before allowing the extraction to take place for 16 h. Subsequently, the sample is centrifuged for 12 minutes at 10000 g and then the supernatant is transferred into a new Corex™ tube. After the addition of 2 mL of chloroform and then 4 mL of distilled water, the entire mixture is vortexed for 30 seconds and then centrifuged for 8 minutes at 3000 g. After elimination of the resultant upper phase, the lower organic phase is collected in a hemolysis tube made of glass. Finally, the solvent is evaporated under a nitrogen stream at 80° C. to obtain total cell lipid samples.
The samples of total cell lipids are put back into suspension in 1 mL of dichloromethane in being vortexed for 30 seconds. The entire mixture is deposited on a silica column (BOND ELUT-SI, 100 mg 1 mL) preconditioned with 3 mL of methanol and then 2 mL of dichloromethane successively. The fraction retained by the column is then washed with 2 mL of dichloromethane and then 2 mL of acetone successively. Finally, 2 mL of a mixture of chloroform/methanol/water 50:45:5 (v/v/v) are deposited on the column and the phospholipids thus eluted are collected in a glass hemolysis tube. The solvent is evaporated under nitrogen at 80° C. to obtain the samples of cellular phospholipids.
Once put back into suspension in 100 μL of mixture Mix^− (isopropanol/acetonitrile/water 2:1:1 (v/v/v)+triethylamine 1% (v/v)) or mixture Mix^+ (isopropanol/acetonitrile/water 2:1:1 (v/v/v)+formic acid 1% (v/v)), the samples are analyzed by mass spectrometry (Electro Spray Ionization-Mass Spectrometry (ESI-MS)) in negative or positive mode respectively and the results obtained serve to analyze the fatty acid content of the different species of phospholipids.

QM strain = experiment: Toxicity test on QM strain (growth inhibition haloes); type: cell-based, Saccharomyces cerevisiae; details: after three days; for toxicity for cells that do not synthesize triglycerides: QM strain on agar medium; for haloes of growth inhibition (absence of colonies): QM strain, 5 μl drops on agar
Procedure: 5 μl drops of OAG, LPA or oleic acid were deposited, from stock solutions in the concentrations indicated, on the surface of an agar medium on which the QM strain had been preliminarily spread. […] These haloes are on the contrary not observed in the presence of LPA and OAG.
At the same time, wild strains (WT) and QM are cultivated in aerobic conditions under stirring and at 28° C., in a YPG liquid medium before seeding 3500 cells per cm^2 of YPG+agar 2% (m/v). Following this transfer to solid medium, 1 μL drops of solutions of different compounds at 1, 10 and 100 mM in DMSO or EtOH are deposited on the surface of the agar. Separately, deposits of DMSO and EtOH are also made in order to assess the intrinsic toxicity of these two solvents. After three days of culture of 28° C., the toxicity of the tested compounds is evaluated by comparing the diameters of the growth inhibition haloes obtained for the deposits of undissolved solvents with those of the deposits of different concentrations of compounds tested.

Row | SMILES | apoptosis (proportion of dead cells) of pancreatic β-cells in the presence of saturated fatty acids [1] | production of di-unsaturated phospholipids (level of PC species 36:2) (hem1Δ yeasts) | toxicity for cells that do not synthesize triglycerides (QM strain) | haloes of growth inhibition (absence of colonies) (QM strain) | index of saturation of phospholipids compared with control condition (hem1Δ yeasts)
1 | CCCCCCCC/C=C\CCCCCCCC(=O)OC[C@@H](O)COP(=O)(O)O [LPA, 1-oleoyl-sn-glycerol-3-phosphate] | prevent apoptosis | increase of the level of this species | not toxic | not observed | 
2 | CCCCCCCC/C=C\CCCCCCCC(=O)OC[C@H](CO)OC(C)=O [OAG, 1-oleoyl-2-acetyl-sn-glycerol] | prevent apoptosis | does not restore the production; also recorded: not the case | not toxic | not observed | does not restore an index of saturation comparable to the one observed in the control condition
